# Measured values published in PMC6327988 (Journal of Enzyme Inhibition and Medicinal Chemistry, 2019).
# How the values were obtained:
# BuChE = BuChE (Homo sapiens, UniProt P06276); experiment: BuChE inhibition, Ellman colorimetric method; format: biochemical; conditions: ratio of BuChE IC50 values
# AChE = AChE (Homo sapiens, UniProt P22303); experiment: AChE inhibition, Ellman colorimetric method; format: biochemical; conditions: ratio of AChE IC50 values
# AChE, sequence (P22303 32-614): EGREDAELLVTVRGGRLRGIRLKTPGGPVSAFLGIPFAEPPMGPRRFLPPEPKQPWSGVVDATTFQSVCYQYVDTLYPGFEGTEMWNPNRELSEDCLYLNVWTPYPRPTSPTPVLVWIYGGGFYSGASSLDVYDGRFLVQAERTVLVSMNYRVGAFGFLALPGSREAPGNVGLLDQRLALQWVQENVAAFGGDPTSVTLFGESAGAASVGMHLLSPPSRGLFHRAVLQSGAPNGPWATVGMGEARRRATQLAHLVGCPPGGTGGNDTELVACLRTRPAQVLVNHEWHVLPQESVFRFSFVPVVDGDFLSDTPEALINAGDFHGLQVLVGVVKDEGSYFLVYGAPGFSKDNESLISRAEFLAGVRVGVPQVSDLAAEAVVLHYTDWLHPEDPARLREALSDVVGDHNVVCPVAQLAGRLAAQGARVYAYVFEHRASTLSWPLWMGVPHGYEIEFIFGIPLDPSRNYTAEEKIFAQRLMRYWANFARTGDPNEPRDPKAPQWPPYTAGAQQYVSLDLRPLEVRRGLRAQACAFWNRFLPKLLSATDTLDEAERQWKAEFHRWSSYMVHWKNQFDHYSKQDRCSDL
# BuChE, sequence (P06276 29-602): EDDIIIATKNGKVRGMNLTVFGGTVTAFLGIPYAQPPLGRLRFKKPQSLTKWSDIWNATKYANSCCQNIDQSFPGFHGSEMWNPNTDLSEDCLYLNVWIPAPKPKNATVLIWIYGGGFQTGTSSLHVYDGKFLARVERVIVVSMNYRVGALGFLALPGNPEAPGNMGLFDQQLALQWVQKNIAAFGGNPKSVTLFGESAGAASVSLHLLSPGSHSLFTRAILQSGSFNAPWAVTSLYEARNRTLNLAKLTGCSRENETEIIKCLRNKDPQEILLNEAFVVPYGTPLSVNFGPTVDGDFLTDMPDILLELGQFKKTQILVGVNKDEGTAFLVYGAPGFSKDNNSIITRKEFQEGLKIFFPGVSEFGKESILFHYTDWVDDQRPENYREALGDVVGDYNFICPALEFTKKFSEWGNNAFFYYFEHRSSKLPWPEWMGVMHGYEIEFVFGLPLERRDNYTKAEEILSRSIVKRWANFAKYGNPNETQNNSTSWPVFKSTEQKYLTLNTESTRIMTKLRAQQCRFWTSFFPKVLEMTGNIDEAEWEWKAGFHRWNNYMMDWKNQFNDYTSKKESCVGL
smiles,measurement,setting,value
"Cc1ccc(S(=O)(=O)n2cc(Br)c(=O)[nH]c2=O)cc1 [Compound 4, 5-Bromo-1-(toluene-4-sulfonyl)-1H-pyrimidine-2,4-dione]",fold better BuChE inhibitor compared to 5,BuChE; vs 5,1.42 fold
same,fold less active compared to neostigmine (BuChE),BuChE; vs neostigmine,1.63 fold
same,fold stronger AChE inhibitory profile compared to uracil 3,AChE; vs 3,1.71 fold
same,fold active compared to neostigmine (AChE),AChE; vs neostigmine,1.54 fold
"CS(=O)(=O)n1cc(Br)c(=O)[nH]c1=O [Compound 5, 5-Bromo-1-methanesulfonyl-1H-pyrimidine-2,4-dione]","fold decrease of AChE inhibitory activity, mesylate vs toluene-4-sulfonyl group",AChE; 5 vs 4,1.26 fold
"O=c1[nH]cc(Br)c(=O)[nH]1 [Compound 3, 5-bromo-1H-pyrimidine-2,4-dione]",fold weaker BuChE inhibitor compared to uracil derivative 4,BuChE; vs 4,2.13 fold
